# pIC50: −log10 of the molar value.
# What was measured:
# AsPC-1 cells = experiment: ADP-ribose quantitative analysis (ELISA) in cancer cells; format: cell-based; settings: 8 μM ADP-ribose, 24 hours, P<0.001
# Experimental: (§1) After culturing, the culture medium was removed, the cells were washed with phosphate-buffered saline, and then RIPA buffer was added and the cells were left on ice for 20 minutes. After scraping the cells, the cells were put in a centrifuge tube and centrifuged for 10 minutes at 10,000 g and 4° C. The supernatant was obtained, and 1% SDS was added, and then the reaction product was boiled at 100° C. for 5 minutes and cooled on ice. The supernatant was centrifuged again at 10,000 g and 4° C. for 10 minutes to obtain the final supernatant, and ADP-ribose was quantitatively analyzed and compared using an ELISA analysis kit (Cell Biolabs, Inc., San Diego, CA, USA).
# (§2) The medium of the cultured cells was removed, and the supernatant prepared by treatment with RIPA buffer and 1% sodium dodecyl sulfate (SDS) was used for ELISA analysis to detect and analyze ADP-ribose.
# Caki-1 cells = experiment: as above; format: cell-based; settings: 16 μM ADP-ribose, 24 hours, P<0.001
# Experimental: as §1, §2
# H1975 cells = experiment: as above; format: cell-based; settings: 4 μM ADP-ribose, 24 hours, P<0.001
# Experimental: as §1, §2
# HCT116 cells [1] = experiment: as above; format: cell-based; settings: 8 μM ADP-ribose, 24 hours, P<0.001
# Experimental: as §1, §2
# U-87MG cells [2] = experiment: as above; format: cell-based; settings: 8 μM ADP-ribose, 24 hours, P<0.001
# Experimental: as §1, §2
# HCT116 cells [3] = experiment: Cancer cell death verification (MTT cell viability); format: cell-based
# Experimental: 3×10^3 Brain cancer (U-87MG), lung cancer (H1975), pancreatic cancer (Aspc-1), liver cancer (Hep G2), breast cancer (MDA-MB-231), colon cancer (HCT116), kidney cancer (Caki-1), gastric cancer (SNU-1) and ovarian cancer (OVCAR-3) cells were cultured in a 96-well plate under conditions of 37° C. and 5% CO2 for 24 hours, and then each cancer cell was treated with ADP-ribose at each concentration. After culturing for 24 hours under conditions of 37° C. and 5% CO2 again, 10 μl of 3-(4,5-dimethylthiazol-2-yl)-2,5-diphenyltetrazolium bromide reagent was added to each well and reacted for 1 hour. After the reaction was completed, the reagent was removed, 200 μl of dimethyl sulfoxide was added to each well, and the absorbance was measured to determine the concentration of half-lethality and maximum lethality compared to untreated cells.
# 3×10^3 HCT116 cells were cultured in a 96-well plate for 24 hours under conditions of 37° C. and 5% Ca2, treated with ADP-ribose at concentrations of 0.125, 0.25, 0.5, 1, 2, 4, 8, 16, and 32 μM, respectively, and cultured again for 24 hours under conditions of 37° C. and 5% CO2. Then, 10 μl of 3-(4,5-dimethylthiazol-2-yl)-2,5-diphenyltetrazolium bromide reagent was added to each well and reacted for 1 hour. After the reaction was completed, the reagent was removed, 200 μl of dimethyl sulfoxide was added to each well, and the absorbance was measured to confirm cell viability.
# [4] = test system: Brain cancer (U-87MG) cells; experiment: Xenograft model, combination with anti-cancer drug, tumor volume; format: in vivo, BALB/c nude mice; settings: U-87MG xenograft
# Experimental: (§3) Brain (U-87MG), lung (H1975), pancreatic (AsPC-1), or liver (Hep G2) cells (1×10^7 cells) were inoculated into 5-week-old BALB/c nude mice on the back flank, respectively. Then, when tumors were grown to a volume of approximately 150 mm^3, the mice were divided into the control group (control), an anti-cancer drug alone treatment group, and a combination treatment group. […] The tumor size was measured every 6 days using a digital caliper, and the results of changes in tumor volume were compared by the group.
# Brain cancer (U-87MG) cells (1×10^7) were inoculated into 5-week-old BALB/c nude mice on the back flank, and the mice were divided into three groups: the control group (Control), single intraperitoneal administration of 25 mg/kg of Avastin (ingredient name: bevacizumab), and combination administration of Avastin+10 mg/kg of ADP-ribose. When the tumors were grown to a volume of approximately 150 mm^3, Avastin was administered intraperitoneally twice a week, and ADP-ribose at 10 mg/kg was injected subcutaneously 3 times a week. The tumor size was measured using a digital caliper, and the results of changes in tumor volume were compared by the group.
# [5] = test system: Liver cancer (Hep G2) cells; experiment: as above; format: in vivo, BALB/c nude mice
# Experimental: as §3
# Liver cancer (Hep G2) cells (1×10^7) were inoculated into 5-week-old BALB/c nude mice on the back flank, and the mice were divided into three groups: the control group (Control), single oral administration of 10 mg/kg of sorafenib, and combination administration of sorafenib+10 mg/kg of ADP-ribose. When the tumors were grown to a volume of approximately 150 mm^3, sorafenib was administered orally 5 times a week, and ADP-ribose at 10 mg/kg was injected subcutaneously 3 times a week. The tumor size was measured using a digital caliper, and the results of changes in tumor volume were compared by the group.
# MDA-MB-231 cells = experiment: Change over time in intracellular ADP-ribose, radiation versus ADP-ribose treatment (ELISA); format: cell-based; settings: MDA-MB-231, 16 μM ADP-ribose, even after 24 hours; after radiation back to untreated level from 16 hours
# Experimental: Brain cancer (U-87MG), kidney cancer (Caki-1), pancreatic cancer (AsPC-1), or breast cancer (MDA-MB-231) cells were cultured in a 6-well plate, respectively, and the cells were divided into the untreated group, the radiation-treated group, and the ADP-ribose-treated group. Irradiation was performed using an X-Rad 320 irradiator (Precision X-ray, North Branford, CT, USA), and cancer cells were treated with a total of 1, 2, and 5 Gy at a dose rate of 300 kVp and 150 cGy/min using an X-ray beam filter composed of 12.5 mA and 2.0 mm Al, respectively. Before treatment and at 4, 8, 16, and 24 hours after treatment, the medium was removed, the cells were washed with phosphate-buffered saline, and then RIPA buffer was added and the products were left on ice for 20 minutes. After scraping the cells, the cells were put in a centrifuge tube and centrifuged for 10 minutes at 10,000 g and 4° C. The supernatant was obtained, and 1% SDS was added, and then the reaction product was boiled at 100° C. for 5 minutes and cooled on ice. The supernatant was centrifuged again at 10,000 g and 4° C. for 10 minutes to obtain the final supernatant, and ADP-ribose was quantitatively analyzed using an ELISA analysis kit (Cell Biolabs, Inc., San Diego, CA, USA). […]
# U-87MG cells [6] = experiment: Cell death by combination treatment of ADP-ribose and radiation (MTT); format: cell-based; settings: 8 μM ADP-ribose in combination with 2 Gy radiation, 24 hours, P<0.001, 2 Gy alone about 88%
# Experimental: 3×10^3 Brain cancer (U-87MG) cells were cultured in a 96-well plate for 24 hours under conditions of 37° C. and 5% CO2, treated with 8 μM of ADP-ribose and 2 or 5 Gy dose of radiation individually or in combination, and cultured for 24 hours under conditions of 37° C. and 5% CO2 again. Then, 10 μl of 3-(4,5-dimethylthiazol-2-yl)-2,5-diphenyltetrazolium bromide reagent was added to each well and reacted for 1 hour. After the reaction was completed, the reagent was removed, 200 μl of dimethyl sulfoxide was added to each well, and the absorbance was measured to confirm cell viability.
# [7] = ADP-ribose 10 mg/kg s.c. in combination with Avastin 25 mg/kg, P<0.001
# [8] = ADP-ribose 10 mg/kg s.c. in combination with sorafenib 10 mg/kg, P<0.001
compound,measurement,setting,value
"Nc1ncnc2c1ncn2[C@@H]1O[C@H](COP(=O)(O)OP(=O)(O)OC[C@H]2O[C@@H](O)C(O)C2O)C(O)C1O (stereo partly shown) [ADP-ribose, adenosine diphosphate ribose]",amount of ADP-ribose in cells compared to the control group,AsPC-1 cells,remarkably increased significantly
same,amount of ADP-ribose in cells compared to the control group,Caki-1 cells,remarkably increased significantly
same,amount of ADP-ribose in cells compared to the control group,H1975 cells,remarkably increased significantly
same,amount of ADP-ribose in cells compared to the control group,HCT116 cells [1],remarkably increased significantly
same,amount of ADP-ribose in cells compared to the control group,U-87MG cells [2],remarkably increased significantly
same,maximum lethal dose (concentration at which almost all cells were killed),"HCT116 cells [3]; HCT116, 24 hours, MTT",32 µM
same,cancer cell growth under a microscope,"HCT116 cells [3]; HCT116, ADP-ribose treated vs control, FIG. 7A",inhibited from growing and killed
same,pIC50,"HCT116 cells [3]; Homo sapiens, HCT-116, 24 h, read-out: half-lethal dose (concentration at which about half of the cells were killed)",~5.10
same,reduction of tumor volume compared to the control group,[4]; [7],about 87%
same,reduction of tumor volume compared to the group treated with Avastin alone,[4]; [7],about 79%
same,final tumor volume,"[4]; ADP-ribose 10 mg/kg subcutaneous 3 times a week in combination with Avastin 25 mg/kg, control about 2527.1",about 334.5 mm^3
same,reduction of tumor volume compared to the control group,[5]; [8],about 76%
same,reduction of tumor volume compared to the group treated with sorafenib alone,[5]; [8],about 70%
same,final tumor volume,"[5]; ADP-ribose 10 mg/kg subcutaneous 3 times a week in combination with sorafenib 10 mg/kg, control about 2322.4",about 546 mm^3
same,amount of ADP-ribose in the cells over time compared to the control group,MDA-MB-231 cells,maintained a significant (P<0.001) increase
same,survival rate of cancer cells,U-87MG cells [6],about 12.3%

# Reference: patent US20230372382A1, “USE OF ADENOSINE DIPHOSPHATE RIBOSE FOR ADJUVANT THERAPY WITH RADIATION AND/OR ANTI-CANCER TREATMENT” (PearlsInMires Co., Ltd., priority 2021, published 2023)
